PMC7801683 (2021)

Key:
[1] = tested on: GGA/GGA internal loop RNA duplex (UGGAA/UGGAA pentad) (RNA, mismatch bulge abasic) GUACUGGAACAUG/CAUGUGGAAGUAC; assay: UV melting; conditions: 100 mM NaCl; 10 mM sodium cacodylate pH 7.0; 20 µM compound, 4 µM RNA
[2] = tested on: r(UGGAA)9 (RNA, repeat) UGGAAUGGAAUGGAAUGGAAUGGAAUGGAAUGGAAUGGAAUGGAA; assay: EMSA; conditions: 100 mM NaCl; 10 mM sodium cacodylate pH 7.0, room temperature; 2 µM compound
[3] = tested on: SCA31 hpRNA (RNA, hairpin) GUACUGGAACAUGUUUCAUGUGGAAGUAC; assay: ITC; conditions: 100 mM NaCl; 10 mM sodium cacodylate pH 7.0, 25 °C; apparent; single set of identical sites
[4] = tested on: 5'-biotin-TEG r(UGGAA)9 (RNA, repeat) UGGAAUGGAAUGGAAUGGAAUGGAAUGGAAUGGAAUGGAAUGGAA; assay: SPR; conditions: 150 mM NaCl; 10 mM HEPES pH 7.4, 3 mM EDTA, 0.05% P20; 500 nM compound
[5] = tested on: r(UGGAA)9 (RNA, repeat) UGGAAUGGAAUGGAAUGGAAUGGAAUGGAAUGGAAUGGAAUGGAA; assay: UV melting; conditions: 100 mM NaCl; 10 mM sodium cacodylate pH 7.0; 20 µM compound, 2 µM RNA; Tm 73.7 °C with NCD, none without
[6] = tested on: SCA31 hpRNA (RNA, hairpin) GUACUGGAACAUGUUUCAUGUGGAAGUAC; assay: NMR solution structure; conditions: 100 mM NaCl; 20 mM sodium phosphate pH 6.9, 288 K
[7] = tested on: GGA/AGA internal loop RNA duplex (RNA, mismatch bulge abasic) GUACUGGAACAUG/CAUGUAGAAGUAC; assay: UV melting; conditions: 100 mM NaCl; 10 mM sodium cacodylate pH 7.0; 20 µM compound, 4 µM RNA
[8] = tested on: r(UAAAA)9 (RNA, repeat) UAAAAUAAAAUAAAAUAAAAUAAAAUAAAAUAAAAUAAAAUAAAA; assay: UV melting; conditions: 100 mM NaCl; 10 mM sodium cacodylate pH 7.0; 20 µM compound, 2 µM RNA
[9] = tested on: SCA31 hpRNA (RNA, hairpin) GUACUGGAACAUGUUUCAUGUGGAAGUAC; assay: ESI-TOF MS; conditions: 100 mM ammonium acetate; 50% methanol; 10 µM RNA, 40 µM compound

With `Cc1ccc2ccc(NC(=O)OCCCNCCCOC(=O)Nc3ccc4ccc(C)nc4n3)nc2n1` the Tm [1] was 21.5 °C, the binding [2] was “yes” and the “Kd(app)” value [3] was 32 nM. The binding [4] was “yes”, the binding [5] was “yes” and the binding [6] was “yes”. The ΔTm [7] was 5.2 °C, the binding [8] was “no” and the binding [9] was “yes”.
